Where two headings read alike, the source gives them in different places.
How the values were obtained:
cyclin E/CDK2 enzyme = molecular target: T1, cyclin E/CDK2 enzyme (Homo sapiens, UniProt P24941); test: CDK2 ELISA kinase assay (phospho-Rb ser 795 detection); format: biochemical
T1 construct: made in house; host or cells: Sf9 insect cells, recombinant baculovirus
Procedure, shortened: (§1)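 Screening was done at 10 ug/ml compound. Each partially purified cyclin/CDK complex, produced in baculovirus-infected Sf9 cells, phosphorylated a coated GST-Rb C-terminal fragment with 200 μM ATP, and Ser795 phosphorylation was quantified by HRP-ELISA at 450 nm.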

BT474 = test: Cytotoxicity assay (SRB), BT474; format: cell-based
Procedure, shortened: (§2)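 BT474 (12000 cells/well) was treated for 6 days, whereas HCT-116 (4000), LoVo (6000) and MCF-7 (6000) were treated for 3 days, all in RPMI 1640 containing 5% FBS. Surviving-cell percentage came from SRB dye binding measured at 540 nm.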

cyclin B/CDK1 enzyme = molecular target: T2, cyclin B/CDK1 enzyme (Homo sapiens, UniProt P06493); test: CDK1 ELISA kinase assay (phospho-Rb ser 795 detection); format: biochemical
T2 construct: purchased New England BioLabs; host or cells: Sf9 insect cells, recombinant baculovirus
Procedure, shortened: as §1

cyclin D1/cdk 4 enzyme = molecular target: T3, cyclin D1/cdk 4 enzyme (Homo sapiens, UniProt P11802); test: CDK4 ELISA kinase assay (phospho-Rb ser 795 detection); format: biochemical
T3 construct: made in house; host or cells: Sf9 insect cells, recombinant baculovirus
Procedure, shortened: as §1

LoVo = test: Cytotoxicity assay (SRB), LoVo; format: cell-based; conditions: LoVo cells, SRB, read-out: In Vitro Cellular Activity IC50 LOVO
Procedure, shortened: as §2

MCF-7 = test: Cytotoxicity assay (SRB), MCF-7; format: cell-based; conditions: MCF-7 cells, SRB, read-out: In Vitro Cellular Activity IC50 MCF-7
Procedure, shortened: as §2

HCT-116 = test: Cytotoxicity assay (SRB), HCT-116; format: cell-based; conditions: HCT116 cells, SRB, read-out: In Vitro Cellular Activity IC50 HCT116
Procedure, shortened: as §2

[1] = In Vitro Enzyme Assays, read-out: CDK2 IC50
[2] = Homo sapiens, BT-474, 144 h, BT474 cells, SRB, 6 days; read-out: In Vitro Cellular Activity IC50 BT474
[3] = In Vitro Enzyme Assays, read-out: CDK1 IC50
[4] = In Vitro Enzyme Assays, 200 μM ATP, read-out: CDK4 IC50
[5] = Homo sapiens, LoVo, 72 h, three days
[6] = Homo sapiens, MCF7, 72 h, three days
[7] = Homo sapiens, HCT-116, 72 h, three days
[8] = In Vitro Enzyme Assay, cyclin E/CDK2, read-out: CDK2 IC50
[9] = Homo sapiens, BT-474, 144 h, BT474 cells, 6 days, SRB; read-out: In Vitro Cellular Activity IC50 BT474
[10] = In Vitro Enzyme Assay, cyclin B/CDK1, read-out: CDK1 IC50
[11] = In Vitro Enzyme Assay, cyclin D1/cdk 4, read-out: CDK4 IC50
[12] = Homo sapiens, LoVo, 72 h, 3 days
[13] = Homo sapiens, MCF7, 72 h, 3 days
[14] = Homo sapiens, HCT-116, 72 h, 3 days

T2 sequence (P06493 whole entry): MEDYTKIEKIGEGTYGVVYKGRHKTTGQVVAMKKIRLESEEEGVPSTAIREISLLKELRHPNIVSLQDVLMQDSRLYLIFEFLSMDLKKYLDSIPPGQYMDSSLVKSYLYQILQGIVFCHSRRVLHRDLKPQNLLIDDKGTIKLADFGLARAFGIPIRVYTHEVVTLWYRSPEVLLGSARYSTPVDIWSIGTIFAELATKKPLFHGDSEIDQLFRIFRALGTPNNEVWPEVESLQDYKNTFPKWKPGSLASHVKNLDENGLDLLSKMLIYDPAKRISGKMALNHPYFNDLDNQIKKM
T2 sequence (P14635 whole entry partner): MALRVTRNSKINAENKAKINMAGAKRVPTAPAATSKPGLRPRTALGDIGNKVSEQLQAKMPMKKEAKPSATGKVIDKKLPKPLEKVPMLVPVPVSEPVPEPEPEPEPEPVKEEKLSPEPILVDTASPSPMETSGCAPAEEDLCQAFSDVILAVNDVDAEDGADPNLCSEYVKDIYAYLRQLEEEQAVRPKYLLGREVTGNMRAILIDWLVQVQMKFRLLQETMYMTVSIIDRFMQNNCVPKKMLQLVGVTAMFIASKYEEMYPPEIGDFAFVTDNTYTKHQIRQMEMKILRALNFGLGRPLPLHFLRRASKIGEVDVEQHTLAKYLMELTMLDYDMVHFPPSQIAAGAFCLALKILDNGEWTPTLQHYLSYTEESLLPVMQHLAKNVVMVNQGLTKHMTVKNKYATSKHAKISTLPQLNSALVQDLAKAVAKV
T3 sequence (P11802 whole entry, species assumed): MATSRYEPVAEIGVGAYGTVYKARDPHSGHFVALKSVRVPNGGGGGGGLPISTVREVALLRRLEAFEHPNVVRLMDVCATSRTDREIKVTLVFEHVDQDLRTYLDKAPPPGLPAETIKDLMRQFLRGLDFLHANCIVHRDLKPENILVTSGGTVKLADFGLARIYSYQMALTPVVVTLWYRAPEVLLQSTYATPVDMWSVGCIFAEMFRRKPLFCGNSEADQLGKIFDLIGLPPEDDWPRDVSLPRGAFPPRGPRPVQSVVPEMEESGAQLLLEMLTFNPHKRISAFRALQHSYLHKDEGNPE
T3 sequence (P24385 whole entry partner, species assumed): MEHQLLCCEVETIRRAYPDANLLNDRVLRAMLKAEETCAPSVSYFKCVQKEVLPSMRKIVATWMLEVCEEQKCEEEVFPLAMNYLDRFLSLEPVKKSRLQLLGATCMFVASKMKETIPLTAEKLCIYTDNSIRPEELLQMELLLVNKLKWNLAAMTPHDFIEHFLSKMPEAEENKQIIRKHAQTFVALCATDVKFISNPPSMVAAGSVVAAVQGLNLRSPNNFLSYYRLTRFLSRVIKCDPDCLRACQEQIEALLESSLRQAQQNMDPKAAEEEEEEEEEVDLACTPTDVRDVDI

Compound	IC50 (cyclin E/CDK2 enzyme; [1])	IC50 (BT474; [2])	IC50 (cyclin B/CDK1 enzyme; [3])	IC50 (cyclin D1/cdk 4 enzyme; [4])	IC50 (LoVo; [5])	IC50 (MCF-7; [6])	IC50 (HCT-116; [7])	IC50 (cyclin E/CDK2 enzyme; [8])	IC50 (BT474; [9])	IC50 (cyclin B/CDK1 enzyme; [10])	IC50 (cyclin D1/cdk 4 enzyme; [11])	IC50 (LoVo; [12])	IC50 (MCF-7; [13])	IC50 (HCT-116; [14])	IC50 (BT474; BT474 cells, SRB, 6 days; read-out: In Vitro Cellular Activity IC50 BT474)	IC50 (LoVo; three days)	IC50 (MCF-7; three days)	IC50 (HCT-116; three days)
COc1ccc(CN/C=C2\C(=O)NC(=O)c3ccc(-c4cccc(F)c4)cc32)cc1O [Example 209, (4Z)-6-(3-Fluorophenyl)-4-{[(3-hydroxy-4-methoxybenzyl)amino]methylene}iso-quinoline-1,3(2H,4H)-dione]	9.2 µM	9.4 µM	> 50 µM	0.01 µM	15 µM	5.4 µM	7 µM	–	–	–	–	–	–	–	–	–	–	–
CN(C)CCCCCN/C=C1\C(=O)NC(=O)c2ccc(Br)cc21 [Example 304, (Z)-6-Bromo-4-((5-(dimethylamino)pentylamino)methylene)isoquinoline-1,3(2H,4H)-dione]	36.3 µM	16 µM	> 50 µM	1.5 µM	6.7 µM	7.1 µM	13 µM	–	–	–	–	–	–	–	–	–	–	–
O=C1NC(=O)c2ccc(Br)cc2/C1=C/NCc1cc(O)ccc1O [Example 173, (4Z)-6-Bromo-4-{[(2,5-dihydroxybenzyl)amino]methylene}isoquinoline-1,3(2H,4H)-dione]	4.7 µM	8.3 µM	> 50 µM	0.11 µM	17 µM	12 µM	11 µM	–	–	–	–	–	–	–	–	–	–	–
CCCOc1ccc(CN/C=C2\C(=O)NC(=O)c3ccc(-c4cccc(F)c4)cc32)cc1O [Example 193, (4Z)-6-(3-Fluorophenyl)-4-{[(3-hydroxy-4-propoxybenzyl)amino]methylene}-isoquinoline-1,3(2H,4H)-dione]	> 50 µM	> 50 µM	> 50 µM	1.4 µM	> 50 µM	4.4 µM	16 µM	–	–	–	–	–	–	–	–	–	–	–
N#Cc1ccc(-c2ccc3c(c2)C(=CNc2ccc(CN4CCCC4)cc2)C(=O)NC3=O)cc1 [Example 839, 4-{1,3-Dioxo-4-[(4-pyrrolidin-1-ylmethyl-phenylamino)-methylene]-1,2,3,4-tetrahydro-isoquinolin-6-yl}-benzonitrile]	–	–	–	–	–	–	–	38.8 µM	27.2 µM	> 50 µM	3.3 µM	> 50 µM	21.6 µM	14.1 µM	–	–	–	–
COCCn1ccc(-c2ccc3c(c2)C(=CNc2ccc(N4CCN(C)CC4)cc2)C(=O)NC3=O)c1 [Example 843, 6-[1-(2-Methoxy-ethyl)-1H-pyrrol-3-yl]-4-{[4-(4-methyl-piperazin-1-yl)-phenylamino]-methylene}-4H-isoquinoline-1,3-dione]	–	–	–	–	–	–	–	> 50 µM	> 50 µM	> 50 µM	0.18 µM	> 50 µM	47.1 µM	54.3 µM	–	–	–	–
O=C1NC(=O)c2ccc(-c3ccsc3)cc2/C1=C/Nc1ccc(N2CCN(CC3CC3)CC2)nc1 [Example 418, (4Z)-4-[({6-[4-(Cyclopropylmethyl)piperazin-1-yl]pyridin-3-yl}amino)methylene]-6-(3-thienyl)isoquinoline-1,3(2H,4H)-dione]	> 50 µM	–	> 50 µM	0.02 µM	–	–	–	–	2.7 µM	–	–	2.4 µM	3.2 µM	1.4 µM	–	–	–	–
O=C1NC(=O)c2ccc(-c3ccc(CO)cc3)cc2C1=CNc1ccc(CN2CCCC2)cc1 [Example 840, 6-(4-Hydroxymethyl-phenyl)-4-[(4-pyrrolidin-1-ylmethyl-phenylamino)-methylene]-4H-isoquinoline-1,3-dione]	–	–	–	–	–	–	–	31 µM	> 50 µM	> 50 µM	3 µM	> 50 µM	40 µM	19 µM	–	–	–	–
(4Z)-4-{[(3-Hydroxy-4-propoxybenzyl)amino]methylene}-6-thiene-3-ylisoquinoline-,3(2H,4H)-dione [Example 183]	> 50 µM	–	> 50 µM	0.11 µM	–	–	–	–	–	–	–	–	–	–	13 µM	12 µM	8.8 µM	8.4 µM
CCN1CCN(c2ccc(N/C=C3\C(=O)NC(=O)c4ccc(I)cc43)cc2)CC1 [Example 393, (4Z)-4-({[4-(4-Ethylpiperazin-1-yl)phenyl]amino}methylene)-6-iodoisoquinoline-1,3(2H,4H)-dione]	> 50 µM	–	> 50 µM	0.47 µM	–	–	–	–	5.9 µM	–	–	6.8 µM	2.7 µM	2.8 µM	–	–	–	–
O=C1NC(=O)c2ccc(-c3ccc[nH]3)cc2C1=CNCc1ccc(O)c(O)c1 [Example 647, 4-[(3,4-Dihydroxy-benzylamino)-methylene]-6-(1H-pyrrol-2-yl)-4H-isoquinoline-1,3-dione]	–	–	–	–	–	–	–	2.6 µM	18.3 µM	8.6 µM	< 0.005 µM	9.5 µM	19.5 µM	15.3 µM	–	–	–	–
O=C1NC(=O)c2ccc(Br)cc2/C1=C/NCc1cccc(O)c1 [Example 46]	> 50 µM	> 50 µM	> 50 µM	0.033 µM	23 µM	> 50 µM	23 µM	–	–	–	–	–	–	–	–	–	–	–
CN1CCN(c2ccc(N/C=C3\C(=O)NC(=O)c4ccc(-c5ccsc5)cc43)cn2)CC1 [Example 396, (4Z)-4-({[6-(4-Methylpiperazin-1-yl)pyridin-3-yl]amino}methylene)-6-thien-3-ylisoquinoline-1,3(2H,4H)-dione]	> 50 µM	–	> 50 µM	0.02 µM	–	–	–	–	2.8 µM	–	–	3.1 µM	3.8 µM	1.4 µM	–	–	–	–
CN1CCN(c2ccc(N/C=C3\C(=O)NC(=O)c4ccc(-c5ccc(C=O)cc5)cc43)cc2)CC1 [Example 115, 4-[(4Z)-4-({[4-(4-Methylpiperazin-1-yl)phenyl]amino}methylene)-1,3-dioxo-1,2,3,4-tetra-hydroisoquinolin-6-yl]benzaldehyde]	7.7 µM	6.7 µM	8.2 µM	0.13 µM	6.5 µM	4.7 µM	1.6 µM	–	–	–	–	–	–	–	–	–	–	–
CN1CCN(c2ccc(N/C=C3\C(=O)NC(=O)c4ccc(-c5coc(CN6CCCC6)c5)cc43)nc2)CC1 [Example 449, (4Z)-4-({[5-(4-Methylpiperazin-1-yl)pyridin-2-yl]amino}methylene)-6-[5-(pyrrolidin-1-ylmethyl)-3-furyl]isoquinoline-1,3(2H,4H)-dione]	> 50 µM	–	> 50 µM	3.6 µM	–	–	–	–	8.1 µM	–	–	2.2 µM	3.5 µM	2.6 µM	–	–	–	–
CONCCCc1ccc(N/C=C2\C(=O)NC(=O)c3ccc(Br)cc32)cc1 [Example 274, (4Z)-6-Bromo-4-[({4-[3-(methoxyamino)propyl]phenyl}amino)methylene]isoquinoline-1,3(2H,4H)-dione]	2.8 µM	12 µM	15.1 µM	1.9 µM	12.5 µM	10.3 µM	9.5 µM	–	–	–	–	–	–	–	–	–	–	–
CN1CCCN(c2ccc(N/C=C3\C(=O)NC(=O)c4ccc(Br)cc43)cc2)CC1 [Example 232, (4Z)-6-Bromo-4-({[4-(4-methyl-1,4-diazepan-1-yl)phenyl]amino}methylene)isoquinoline-1,3(2H,4H)-dione]	> 50 µM	3.3 µM	> 50 µM	2.7 µM	3.7 µM	2.1 µM	1.4 µM	–	–	–	–	–	–	–	–	–	–	–
O=C1NC(=O)c2ccc(-c3ccc4c(c3)OCO4)cc2C1=CNCc1ccc(O)c(O)c1 [Example 812, 6-Benzo[1,3]dioxol-5-yl-4-[(3,4-dihydroxy-benzylamino)-methylene]-4H-isoquinoline-1,3-dione]	–	–	–	–	–	–	–	28.3 µM	> 50 µM	> 50 µM	0.13 µM	> 50 µM	49.8 µM	44.7 µM	–	–	–	–
O=C1NC(=O)c2ccc(Br)cc2/C1=C/NCc1ccc(O)c(O)c1O [Example 175]	18.5 µM	> 50 µM	3.1 µM	4.5 µM	> 50 µM	> 50 µM	28 µM	–	–	–	–	–	–	–	–	–	–	–

From patent US7713994B2 (Wyeth LLC, priority 2005, dated 2010)
